# Reference: patent US20050209278A1, “Piperidinyl- and piperazinyl-sulfonylmethyl hydroxamic acids and their use as protease inhibitors” (priority 2002, published 2005)
# Biological target: T1, MMP-1 (Homo sapiens, UniProt P03956)
# T1 construct: made in house; host or cells: MMP-1-transfected HT-1080 cells (spent media)
# T1 sequence (P03956 100-469): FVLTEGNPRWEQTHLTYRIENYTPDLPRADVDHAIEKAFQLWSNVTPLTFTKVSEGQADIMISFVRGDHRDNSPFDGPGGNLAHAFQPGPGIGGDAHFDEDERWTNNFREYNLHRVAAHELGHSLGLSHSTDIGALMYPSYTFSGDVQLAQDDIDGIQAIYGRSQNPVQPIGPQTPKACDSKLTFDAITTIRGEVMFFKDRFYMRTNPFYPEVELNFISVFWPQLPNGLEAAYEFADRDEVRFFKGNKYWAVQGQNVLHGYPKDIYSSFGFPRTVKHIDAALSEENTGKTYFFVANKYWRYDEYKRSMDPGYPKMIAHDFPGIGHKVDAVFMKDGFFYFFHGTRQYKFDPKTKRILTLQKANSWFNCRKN
# Experiment: In vitro MMP inhibition, Ki determination (fluorogenic substrate II)
# Assay type: biochemical
# Conditions: value not in parenthesis; read-out: MMP-1 Ki
row,SMILES,Ki [µM]
1,O=C(NO)C1(S(=O)(=O)N2CCN(c3ccc4c(c3)OC(F)(F)C(F)(F)O4)CC2)CCOCC1 [Example 67],> 10
2,CCCCOc1c(F)cc(N2CCN(S(=O)(=O)C3(C(=O)NO)CCN(CCOC)CC3)CC2)cc1F [Example 165],> 10
3,CCCCCCc1ccc(N2CCN(S(=O)(=O)C3(C(=O)NO)CCN(CCOC)CC3)CC2)cc1 [Example 199],> 10
4,O=C(NO)C1(S(=O)(=O)N2CCN(c3ccc(-c4ccc(F)cc4)cc3)CC2)CCOCC1 [Example 208],1.73
5,CCCCCc1cnc(N2CCN(S(=O)(=O)C3(C(=O)NO)CCOCC3)CC2)cn1 [Example 219],> 10
6,CCCCOc1ccc(N2CCN(S(=O)(=O)C3(C(=O)NO)CCN(C(=O)c4cccs4)CC3)CC2)cc1 [Example 160],> 10
7,CCCCc1nnc(N2CCN(S(=O)(=O)C3(C(=O)NO)CCOCC3)CC2)s1 [Example 214],> 10
8,O=C(NO)C1(S(=O)(=O)N2CCN(c3ccc(OCCN4CCCC4)cc3)CC2)CCOCC1 [Example 162],> 10
9,CCCCOc1ccc(N2CCN(S(=O)(=O)C3(C(=O)NO)CCN(C(=O)N(CC)CC)CC3)CC2)cc1 [Example 242],> 10
10,CCCc1nnc(N2CCN(S(=O)(=O)C3(C(=O)NO)CCOCC3)CC2)s1 [Example 216],> 10
11,CCCCCc1ccc(N2CCN(S(=O)(=O)C3(C(=O)NO)CCOCC3)CC2)nc1 [Example 167],6.22
12,COCCN1CCC(C(=O)NO)(S(=O)(=O)N2CCN(c3ccc(OC(F)(F)F)cc3)CC2)CC1 [Example 202],7.52
13,COCCN1CCC(C(=O)NO)(S(=O)(=O)N2CCN(c3ccc(C)cc3)CC2)CC1 [Example 194],7.73
14,CCC(C)Cc1ccc(N2CCN(S(=O)(=O)C3(C(=O)NO)CCN(CCOC)CC3)CC2)cc1 (stereo not shown) [Example 190],> 10
15,CCCNC(=O)c1ccc(N2CCN(S(=O)(=O)C3(C(=O)NO)CCN(CCOC)CC3)CC2)cc1 [Example 175],> 10
16,CCCCOc1ccc(N2CCN(S(=O)(=O)C3(C(=O)NO)CCN(C(=O)N4CCCC4)CC3)CC2)cc1 [Example 231],> 10
17,CCCCCc1ccc(N2CCN(S(=O)(=O)C3(C(=O)NO)CCN(C(=O)CC)CC3)CC2)cc1 [Example 206],> 10
18,CCCCOc1ccc(N2CCN(S(=O)(=O)C3(C(=O)NO)CCN(CCN4CCOCC4)CC3)CC2)cc1 [Example 233],> 10
19,CCCCOc1ccc(N2CCN(S(=O)(=O)C3(C(=O)NO)CCSCC3)CC2)cc1 [Example 232],> 10
20,CCCc1ccc(N2CCN(S(=O)(=O)C3(C(=O)NO)CCN(CCOC)CC3)CC2)cc1 [Example 200],> 10
21,CCOCCSc1ccc(N2CCN(S(=O)(=O)C3(C(=O)NO)CCOCC3)CC2)cc1 [Example 234],> 10
22,CCCCOc1ccc(N2CCN(S(=O)(=O)C3(C(=O)NO)CCN(CCOC)CC3)CC2)cn1 [Example 164],> 10
23,CCCCOc1ccc(N2CCN(S(=O)(=O)C3(C(=O)NO)CCN(C(=O)NC(C)(C)C)CC3)CC2)cc1 [Example 240],> 10
24,CCCCc1ccc(N2CCN(S(=O)(=O)C(C)C(=O)NO)CC2)nc1 (stereo not shown) [Example 217],> 10
25,CCCCCc1ccc(N2CCN(S(=O)(=O)C3(C(=O)NO)CCN(S(C)(=O)=O)CC3)CC2)cc1 [Example 237],> 10
26,CCCc1ccc(N2CCN(S(=O)(=O)C3(C(=O)NO)CCN(c4ccc(C)cc4)CC3)CC2)cc1 [Example 171],> 10
27,CCCCOc1ccc(N2CCN(S(=O)(=O)C3(C(=O)NO)CCN(CCCC(F)(F)F)CC3)CC2)cc1 [Example 238],> 10
28,CCCCOc1ccc(N2CCN(S(=O)(=O)C3(C(=O)NO)CCN(c4ccc(N(C)C)cc4)CC3)CC2)cc1 [Example 241],> 10

# Continued, values first:
row,Ki [µM],SMILES
1,> 10,CCCCOc1ccc(N2CCN(S(=O)(=O)C3(C(=O)NO)CCN(Cc4nccn4C)CC3)CC2)cc1 [Example 245]
2,> 10,O=C(NO)C1(S(=O)(=O)N2CCN(c3cnc(CCC(F)(F)F)cn3)CC2)CCOCC1 [Example 218]
3,> 10,CCCCOc1ccc(N2CCN(S(=O)(=O)C3(C(=O)NO)CCN(CCN(CC)CC)CC3)CC2)cc1 [Example 235]
4,> 10,CCCCOc1ccc(N2CCN(S(=O)(=O)C3(C(=O)NO)CCN(c4ccc(OC(F)(F)C(F)F)cc4)CC3)CC2)cc1 [Example 65]
5,> 10,CCCC(C)Cc1ccc(N2CCN(S(=O)(=O)C3(C(=O)NO)CCN(CCOC)CC3)CC2)cc1 (stereo not shown) [Example 189]
6,> 10,CCCCOc1ccc(N2CCN(S(=O)(=O)C3(C(=O)NO)CCN(c4ccc(OC)cc4)CC3)CC2)cc1 [Example 249]
7,7.36,CCCCC(=O)c1ccc(N2CCN(S(=O)(=O)C3(C(=O)NO)CCN(CCOC)CC3)CC2)cc1 [Example 177]
8,1.46,COCCN1CCC(C(=O)NO)(S(=O)(=O)N2CCN(c3ccccn3)CC2)CC1 [Example 176]
9,> 10,CCCCOc1ccc(N2CCN(S(=O)(=O)C3(C(=O)NO)CCN(c4ncccn4)CC3)CC2)cc1 [Example 159]
10,> 10,COCCN1CCC(C(=O)NO)(S(=O)(=O)N2CCN(c3ccc(CC(C)C)cc3)CC2)CC1 [Example 192]
11,> 10,CCCCOc1ccc(N2CCN(S(=O)(=O)C3(C(=O)NO)CCN(C(=O)c4ccco4)CC3)CC2)cc1 [Example 156]
12,> 10,CCCCCc1ccc(N2CCN(S(=O)(=O)C3(C(=O)NO)CCOCC3)CC2)nn1 [Example 197]
13,7.81,O=C(NO)C1(S(=O)(=O)N2CCN(c3ccc(SC(F)(F)F)cc3)CC2)CCOCC1 [Example 170]
14,> 10,CCCCOc1ccc(N2CCN(S(=O)(=O)C3(C(=O)NO)CC3)CC2)cc1 [Example 63]
15,> 10,CCCCOc1ccc(N2CCN(S(=O)(=O)C3(C(=O)NO)CCS(=O)(=O)CC3)CC2)cc1 [Example 222]
16,> 10,CCCCOc1ccc(N2CCN(S(=O)(=O)C3(C(=O)NO)CCN(C(=O)N4CCN(C)CC4)CC3)CC2)cc1 [Example 230]
17,> 10,CCCc1cnc(N2CCN(S(=O)(=O)C3(C(=O)NO)CCN(CCOC)CC3)CC2)nc1 [Example 178]
18,> 10,CCCCCc1ccc(N2CCN(S(=O)(=O)C3(C(=O)NO)CCN(S(=O)(=O)N(C)C)CC3)CC2)cc1 [Example 236]
19,> 10,CC(C)Cc1ccc(N2CCN(S(=O)(=O)C3(C(=O)NO)CCOCC3)CC2)c(F)c1 [Example 213]
20,4.65,COCCN1CCC(C(=O)NO)(S(=O)(=O)N2CCN(c3ccc(C(C)=O)cc3)CC2)CC1 [Example 174]
21,> 10,CCCCOc1ccc(N2CCN(S(=O)(=O)C3(C(=O)NO)CCN(c4nccs4)CC3)CC2)cc1 [Example 157]
22,> 10,COCCN1CCC(C(=O)NO)(S(=O)(=O)N2CCN(c3ccc(OCC(C)C)c(F)c3)CC2)CC1 [Example 166]
23,> 10,O=C(NO)C1(S(=O)(=O)N2CCN(c3cnc(CCC(F)(F)C(F)(F)F)cn3)CC2)CCOCC1 [Example 210]
24,> 10,CCCCCc1ccc(N2CCN(S(=O)(=O)C3(C(=O)NO)CCN(C(C)=O)CC3)CC2)cc1 [Example 239]
25,> 10,CCCCOc1ccc(N2CCN(S(=O)(=O)C3(C(=O)NO)CCN(c4cccc(C)c4)CC3)CC2)cc1 [Example 226]
26,> 10,CCCCCc1ccc(N2CCN(S(=O)(=O)C3(C(=O)NO)CCN(S(N)(=O)=O)CC3)CC2)cc1 [Example 205]
27,> 10,Cc1ccc(N2CCC(C(=O)NO)(S(=O)(=O)N3CCN(c4ccc(OCCCC(F)(F)F)cc4)CC3)CC2)cc1 [Example 161]
